Laboratory results: US20230081390A1, “INHIBITORS OF RAF KINASES” (Kinnate Biopharma Inc., priority 2019, published 2023)

Target: human RAF1 (Homo sapiens, UniProt P04049)
Assay: Protein kinase assay (33P-ATP filter binding), human RAF1, 10-dose IC50
Type: biochemical
Conditions: MEK1 (K97R) substrate 3 micromolar, ATP 10 micromolar, read-out: RAF-1 IC50
Protocol: In brief, for each reaction, kinase and substrate were mixed in a buffer containing 20 mM HEPES (pH 7.5), 10 mM MgCl2, 1 mM EGTA, 0.02% Brij35, 0.02 mg/mL BSA, 0.1 mM Na3VO4, 2 mM DTT, and […]. All compounds were solubilized in DMSO. Compounds were then added to each reaction mixture via acoustic dispense using an ECHO 550 nanoliter dispenser. For human RAF1 testing, human MEK1 (K97R) was used as a substrate at a concentration of 3 micromolar, with a final ATP concentration of 10 micromolar. […] Reactions were carried out at room temperature for 2 hr and spotted onto P81 ion exchange cellulose chromatography paper (Reaction Biology). […] The percent remaining kinase activity relative to a vehicle-containing (DMSO) kinase reaction was calculated for each kinase/inhibitor pair. IC50 values were calculated using Prism 5 (GraphPad).

Chain of human RAF1 (P04049 whole entry): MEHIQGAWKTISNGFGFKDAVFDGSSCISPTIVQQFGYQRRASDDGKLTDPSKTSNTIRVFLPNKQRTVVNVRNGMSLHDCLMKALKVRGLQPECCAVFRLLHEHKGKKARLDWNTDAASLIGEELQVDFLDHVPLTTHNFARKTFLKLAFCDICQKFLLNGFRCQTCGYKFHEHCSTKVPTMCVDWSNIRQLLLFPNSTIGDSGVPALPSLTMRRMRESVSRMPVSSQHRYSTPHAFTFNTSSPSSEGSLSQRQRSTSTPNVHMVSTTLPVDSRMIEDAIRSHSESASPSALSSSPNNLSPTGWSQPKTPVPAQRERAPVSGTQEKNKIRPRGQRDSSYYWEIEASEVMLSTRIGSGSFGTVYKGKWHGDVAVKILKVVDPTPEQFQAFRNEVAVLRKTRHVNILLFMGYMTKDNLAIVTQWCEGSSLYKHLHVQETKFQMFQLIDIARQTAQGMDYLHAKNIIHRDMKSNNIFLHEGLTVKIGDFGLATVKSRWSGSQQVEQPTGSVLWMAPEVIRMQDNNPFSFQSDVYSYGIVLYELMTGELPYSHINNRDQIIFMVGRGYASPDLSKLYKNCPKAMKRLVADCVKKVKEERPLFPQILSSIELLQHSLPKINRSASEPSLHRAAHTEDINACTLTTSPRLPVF

Row | IC50 | SMILES
1 | 10 to 100 nM | Cc1cc(F)c(NC(=O)N2CCC(C(F)(F)F)C2C)cc1-c1cc(OCCO)nc(N2CCOCC2)c1 (single isomer, unassigned) [Example 65, N-[2-fluoro-5-[2-(2-hydroxyethoxy)-6-(morpholin-4-yl)pyridin-4-yl]-4-methylphenyl]-2-methyl-3-(trifluoromethyl)pyrrolidine-1-carboxamide]
2 | < 10 nM | Cc1cc(F)c(NC(=O)N2CCC3(CCC3)C2)cc1-c1cc(OCCO)nc(N2CCOCC2)c1 [Example 26, N-[2-fluoro-5-[2-(2-hydroxyethoxy)-6-(morpholin-4-yl)pyridin-4-yl]-4-methylphenyl]-6-azaspiro[3.4]octane-6-carboxamide]
3 | < 10 nM | Cc1ccc(NC(=O)N2CC(O)C(CC(F)(F)F)C2)cc1-c1cc(OCCO)nc(N2CCOCC2)c1 (centres unmarked) [Example 148, 3-hydroxy-N-[3-[2-(2-hydroxyethoxy)-6-(morpholin-4-yl)pyridin-4-yl]-4-methylphenyl]-4-(2,2,2-trifluoroethyl)pyrrolidine-1-carboxamide]
4 | < 10 nM | Cc1ccc(NC(=O)N2CC(OC(F)(F)F)CN2)cc1-c1cc(OCCO)nc(N2CCOCC2)c1 (centres unmarked) [Example 146, N-[3-[2-(2-hydroxyethoxy)-6-(morpholin-4-yl)pyridin-4-yl]-4-methylphenyl]-4-(trifluoromethoxy) pyrazolidine-1-carboxamide]
5 | < 10 nM | Cc1cc(F)c(NC(=O)N2CC[C@@H](CC(F)(F)F)C2)cc1-c1cc(OC[C@@H](C)O)nc(N2CCOCC2)c1 [Example 181, (S)-N-(2-fluoro-5-(2-((R)-2-hydroxypropoxy)-6-morpholinopyridin-4-yl)-4-methylphenyl)-3-(2,2,2-trifluoroethyl)pyrrolidine-1-carboxamide]
6 | < 10 nM | Cc1cc(F)c(NC(=O)N2C[C@H]3C[C@@]3(C(F)(F)F)C2)cc1-c1cc(OCCO)nc(N2CCOCC2)c1 (single isomer, unassigned) [Example 51]
7 | < 10 nM | Cc1ccc(NC(=O)N2CC[C@@H](CC(F)(F)F)C2)cc1-c1cc(O[C@H]2CC[C@H](O)C2)nc(N2CCOCC2)c1 [Example 207, (3S)-N-[3-(2-[[(1S,3S)-3-hydroxycyclopentyl]oxy]-6-(morpholin-4-yl)pyridin-4-yl)-4-methylphenyl]-3-(2,2,2-trifluoroethyl)pyrrolidine-1-carboxamide]
8 | < 10 nM | Cc1ccc(NC(=O)N2CC[C@@H](C(F)(F)F)C2)cc1-c1cnc(OCCO)c(N2CCOCC2)c1 (single isomer, unassigned) [Example 14]
9 | < 10 nM | Cc1ccc(NC(=O)N2CC[C@@H](CC(F)(F)F)C2)cc1-c1cc(OC(C)(C)CO)nc(N2CCOCC2)c1 [Example 232, (S)-N-(3-(2-((1-hydroxy-2-methylpropan-2-yl)oxy)-6-morpholinopyridin-4-yl)-4-methylphenyl)-3-(2,2,2-trifluoroethyl)pyrrolidine-1-carboxamide]
10 | < 10 nM | Cc1cc(F)c(NC(=O)N2CC[C@H](CC(F)(F)F)C2)cc1-c1cc(OCCO)nc(N2CCOCC2)c1 (single isomer, unassigned) [Example 74]
11 | < 10 nM | Cc1cc(F)c(NC(=O)N2CCC(F)(F)C(C(F)(F)F)C2)cc1-c1cc(OCCO)nc(N2CCOCC2)c1 (centres unmarked) [Example 104, 4,4-difluoro-N-[2-fluoro-5-[2-(2-hydroxyethoxy)-6-(morpholin-4-yl)pyridin-4-yl]-4-methylphenyl]-3-(trifluoromethyl)piperidine-1-carboxamide]
12 | < 10 nM | Cc1ccc(NC(=O)N2CC/C(=C\C(F)(F)F)C2)cc1-c1cc(OCCO)nc(N2CCOCC2)c1 [Example 136, (3E)-N-[3-[2-(2-hydroxyethoxy)-6-(morpholin-4-yl)pyridin-4-yl]-4-methylphenyl]-3-(2,2,2-trifluoroethylidene)pyrrolidine-1-carboxamide]
13 | < 10 nM | Cc1cc(F)c(NC(=O)N2CC[C@@H](OC(F)(F)F)C2)cc1-c1cnc(OC2CCOCC2)c(N2CCOCC2)c1 [Example 126, (3R)-N-[2-fluoro-4-methyl-5-[5-(morpholin-4-yl)-6-(oxan-4-yloxy)pyridin-3-yl]phenyl]-3-(trifluoromethoxy)pyrrolidine-1-carboxamide]
14 | < 10 nM | Cc1ccc(NC(=O)N2CC[C@@H](CC(F)(F)F)C2)cc1-c1cc(OC[C@@H](C)O)nc(N2CCOC3CC32)c1 (stereo partly drawn) [Example 230, (3S)-N-(3-(2-(2-oxa-5-azabicyclo[4.1.0]heptan-5-yl)-6-((R)-2-hydroxypropoxy)pyridin-4-yl)-4-methylphenyl)-3-(2,2,2-trifluoroethyl)pyrrolidine-1-carboxamide]
15 | < 10 nM | Cc1cc(F)c(NC(=O)N2CC[C@H](CC(F)(F)F)C2)cc1-c1cc(O[C@H](C)CO)nc(N2CCOCC2)c1 (single isomer, unassigned) [Example 184]
16 | < 10 nM | Cc1ccc(NC(=O)N2CC[C@H](OC(F)(F)F)C2)cc1-c1cnc(OC2CCOCC2)c(N2CCOCC2)c1 [Example 129, (3S)-N-[4-methyl-3-[5-(morpholin-4-yl)-6-(oxan-4-yloxy)pyridin-3-yl]phenyl]-3-(trifluoromethoxy)pyrrolidine-1-carboxamide]
17 | < 10 nM | Cc1ccc(NC(=O)N2CCC3(CCC3(F)F)C2)cc1-c1cc(OCCO)nc(N2CCOCC2)c1 (single isomer, unassigned) [Example 122, 1,1-difluoro-N-[3-[2-(2-hydroxyethoxy)-6-(morpholin-4-yl)pyridin-4-yl]-4-methylphenyl]-6-azaspiro[3.4]octane-6-carboxamide]
18 | < 10 nM | Cc1ccc(NC(=O)N2CCC(CC(F)(F)F)C2)cc1-c1cc(OCC(C)(C)CO)nc(N2CCOCC2)c1 (centres unmarked) [Example 196, N-(3-(2-(3-hydroxy-2,2-dimethylpropoxy)-6-morpholinopyridin-4-yl)-4-methylphenyl)-3-(2,2,2-trifluoroethyl)pyrrolidine-1-carboxamide]
19 | < 10 nM | Cc1ccc(NC(=O)N2CC[C@@H](CC(F)(F)F)C2)cc1-c1cc(OCCC2(O)COC2)nc(N2CCOCC2)c1 [Example 225, (3S)-N-(3-[2-[2-(3-hydroxyoxetan-3-yl)ethoxy]-6-(morpholin-4-yl)pyridin-4-yl]-4-methylphenyl)-3-(2,2,2-trifluoroethyl)pyrrolidine-1-carboxamide]
20 | 100 to 1000 nM | Cc1cc(F)c(NC(=O)N2CCC(C(F)(F)F)C2C)cc1-c1cc(OCCO)nc(N2CCOCC2)c1 (single isomer, unassigned) [Example 64, N-[2-fluoro-5-[2-(2-hydroxyethoxy)-6-(morpholin-4-yl)pyridin-4-yl]-4-methylphenyl]-2-methyl-3-(trifluoromethyl)pyrrolidine-1-carboxamide]
21 | < 10 nM | Cc1ccc(NC(=O)N2CC[C@@H](SC(F)(F)F)C2)cc1-c1cc(OCCO)nc(N2CCOCC2)c1 (single isomer, unassigned) [Example 117]
22 | < 10 nM | Cc1cc(F)c(NC(=O)N2CCS[C@H](C(F)(F)F)C2)cc1-c1cc(OCCO)nc(N2CCOCC2)c1 [Example 168, (S)-N-(2-fluoro-5-(2-(2-hydroxyethoxy)-6-morpholinopyridin-4-yl)-4-methylphenyl)-2-(trifluoromethyl)thiomorpholine-4-carboxamide]
23 | < 10 nM | Cc1cc(F)c(NC(=O)N2C[C@H](C(F)(F)F)C[C@@H]2C)cc1-c1cc(OCCO)nc(N2CCOCC2)c1 (single isomer, unassigned) [Example 61, (cis)-N-[2-fluoro-5-[2-(2-hydroxyethoxy)-6-(morpholin-4-yl)pyridin-4-yl]-4-methylphenyl]-2-methyl-4-(trifluoromethyl)pyrrolidine-1-carboxamide]
24 | < 10 nM | Cc1ccc(NC(=O)N2CC[C@@H](OC(F)(F)F)C2)cc1-c1cc(O[C@H](C)CO)nc(N2CCOCC2)c1 [Example 214, (3R)-N-[3-(2-[[(2R)-1-hydroxypropan-2-yl]oxy]-6-(morpholin-4-yl)pyridin-4-yl)-4-methylphenyl]-3-(trifluoromethoxy)pyrrolidine-1-carboxamide]
25 | < 10 nM | Cc1ccc(NC(=O)N2CC[C@@H](CC(F)(F)F)C2)cc1-c1cc(O[C@H](C)[C@@H](C)O)nc(N2CCOCC2)c1 [Example 233, (S)-N-(3-(2-(((2R,3R)-3-hydroxybutan-2-yl)oxy)-6-morpholinopyridin-4-yl)-4-methylphenyl)-3-(2,2,2-trifluoroethyl)pyrrolidine-1-carboxamide]
26 | < 10 nM | Cc1cc(F)c(NC(=O)N2CC[C@H](C(C)(F)F)C2)cc1-c1cc(OCCO)nc(N2CCOCC2)c1 (single isomer, unassigned) [Example 33]
27 | < 10 nM | Cc1ccc(NC(=O)N2CC[C@H](CC(F)(F)F)C2)cc1-c1cnc(OC2CCOCC2)c(N2CCOCC2)c1 (single isomer, unassigned) [Example 194]
28 | < 10 nM | Cc1cc(F)c(NC(=O)N2CC3CCC3(C(F)(F)F)C2)cc1-c1cc(OCCO)nc(N2CCOCC2)c1 (single isomer, unassigned) [Example 82, N-[2-fluoro-5-[2-(2-hydroxyethoxy)-6-(morpholin-4-yl)pyridin-4-yl]-4-methylphenyl]-1-(trifluoromethyl)-3-azabicyclo[3.2.0]heptane-3-carboxamide]

Row | SMILES | IC50
29 | Cc1ccc(NC(=O)N2CC[C@@H](CC(F)(F)F)C2)cc1-c1cc(OC2CC(C)(O)C2)nc(N2CCOCC2)c1 (stereo partly drawn) [Example 217, (3S)-N-[3-[2-(3-hydroxy-3-methylcyclobutoxy)-6-(morpholin-4-yl)pyridin-4-yl]-4-methylphenyl]-3-(2,2,2-trifluoroethyl)pyrrolidine-1-carboxamide] | < 10 nM
